Data reported in article PMC6273592, “Catalytic Synthesis of a New Series of Alkyl Uronates and Evaluation of Their Physicochemical Properties” (Molecules, 2016).
In brackets after ≈: the same amount, converted by molar mass. Several values for one entry are separate records, joined by “and”; a condition that tells them apart may be missing. Equal entries are not always repeated. Entries after “also recorded” stand apart in the source; their conditions may differ. Where two headings read alike, the source gives them in different places.

Assays:
[1] = Aqueous solubility: concentration limit of apparently clear solution ([C]max) by visual observation; type: physicochemical; settings: for solubility at 30 min: deionized water
Experimental: (§1) For each molecule, several samples in 1–2 mL deionized water with various concentrations (between 0.01 mM and 100 mM) were prepared by homogenizing at 500 rpm with a standard magnetic hotplate stirrer MR 3001K (Heidolph Instruments, Schwabach, Germany) for 30 min. The soluble or insoluble character was estimated on the aspect change of corresponding dispersion systems. The concentration limit to obtain an apparently clear solution was noted [C]max. […] This allows the examination of the temperature-driven solubilization behavior and verifies the presence of the Krafft point (Tk), above which the surfactant solubility in water increases abruptly. At Tk, solubility of the surfactant reaches its critical micelle concentration (CMC). In other words, Tk represents the critical temperature at which the micellization process occurs with the dissolution of hydrated surfactant crystals. Thus, Tk can be precisely determined by differential scanning calorimetry (DSC), which has already been proposed by some authors. All of the measurements were performed with a commercial µDSC7 evo calorimeter (SETARAM Instrumentation, Caluire, France). For each molecule, a sample with a concentrated aqueous mixture of 10% (w/w) molecule (C >> CMC) was prepared at 50 °C under magnetic agitation for 30 min to obtain a homogeneous and clear dispersion. These dispersions were then put into a refrigerator at 4 °C for a period over a week, permitting potential phase transitions, including the formation of equilibrated hydrated crystals. Samples of about 300 mg were introduced in the calorimeter cell and equilibrated at 4 °C for 1 h. A heating scan from 4 °C to 65 °C at a rate of 0.5 °C/min was then performed. Tk were identified as the onset of the endothermic signal detected by DSC during the dissolution of hydrated crystals. Tk were calculated as an average of at least two measurements.

[2] = Equilibrium surface tension at the air-aqueous solution interface (Wilhelmy plate); type: physicochemical; settings: water; for Amin (minimal area per molecule at air-aqueous solution interface): calculated from Gibbs equation
Experimental: The surface activity of the synthesized molecules was studied mainly in terms of their adsorption behavior on the air-aqueous solution interface. The equilibrium surface tensions γ were measured by means of a Wilhelmy plate using a K100 Processor Tensiometer (KRUSS, Hamburg, Germany). The equilibrium surface tension γ was plotted as a function of the log concentration for all molecules, from which we can derive various parameters, like critical micellar concentration (CMC) extrapolated from the break in the surface tension curve and surface tension at the CMC (γcmc). The surface excess (Γmax) and minimal area per molecule at air-aqueous solution interface (Amin) can be calculated from Gibbs equation for non-ionic surfactants: (2) Гmax=−1/2.303RT(dγ/dlogc) and (3) Amin=10^20/NAГmax where R is the ideal gas constant (8.31 J·mol^−1K^−1)’ T is the measuring temperature (K); γ is the surface tension (N·m^−1), c is the concentration (mol·L^−1); Amin is the minimal area per molecule (Å^2); and NA is Avogadro′s number (6.02 × 10^23 mol^−1).
For each molecule, a series of solutions of different concentrations were prepared well above its Krafft Point, either at room temperature of about 25 °C or at 50 °C, under agitation in a water bath for 30 min. Measurements were carried out for each concentration, either at 25 °C for molecules with a Tk below room temperature, or at T > Tk for those with higher Tk values than 25 °C. The standard deviation for temperature is 1 °C.

[3] = Krafft temperature (Tk) by differential scanning calorimetry; type: physicochemical; settings: DSC, aqueous mixture 10% (w/w), heating scan 4 °C to 65 °C, onset of endothermic signal
Experimental: as §1

[4] = cited from earlier work
[5] = room temperature of about 25 °C, visual observation

Row | Tk (Krafft Temperature) [3] | solubility at 30 min [1, 5] [µM] | [C]max ([1]; water, 25 °C (Table 2)) [mM] | CMC ([2]; 25 °C) [mM] | γcmc (surface tension at the CMC) ([2]; 25 °C) [mN·m^−1] | Amin (minimal area per molecule at air-aqueous solution interface) ([2]; 25 °C) [Å^2/molecule] | Compound | CMC [4] [mM] | also measured
1 | 31 ± 0.9 °C | – | – | – | – | – | CCCCCCCCOC(=O)[C@H]1O[C@@H](OC)[C@H](O)[C@@H](O)[C@H]1O [compound 5, Octyl (methyl β-D-galactopyranosid)uronate] | – | [C]max ([1]; water, 40 °C (Table 2)): >100 mM; [C]max at T > Tk ([1]; water, above Krafft temperature (31 °C)): > 100 mM; [C]max at ≈25 °C (concentration limit of apparently clear solution) ([1]; water, room temperature of about 25 °C, visual observation): insoluble; CMC ([2]; 40 °C): 6.9 ± 0.4 mM; γcmc (surface tension at the CMC) ([2]; 40 °C): 29.4 ± 0.36 mN·m^−1 and 29.4 ± 0.4 mN·m^−1; Amin (minimal area per molecule at air-aqueous solution interface) ([2]; 40 °C): 42.9 ± 3.9 Å^2/molecule
2 | undetected | 500 to 750 (≈ 174 to 261 µg/mL) | 0.5 to 0.75 | 0.65 ± 0.05 | 28.1 ± 0.1 | 42.4 ± 2 | CCCCCCCCCCOC(=O)[C@H]1O[C@H](OC)[C@H](O)[C@@H](O)[C@@H]1O [3e, Decyl (methyl α-D-glucopyranosid)uronate] | – | –
3 | no signal; also recorded: undetected | ≥ 5000 | 5.0 to 6.2 | 5.5 ± 0.5 | 28.3 ± 0.3 | 42.8 ± 2 | CCCCCCCCOC(=O)C1OC(OC)C(O)C(O)C1O [compound 7, Octyl (methyl α-D-mannopyranosid)uronate] | – | –
4 | no signal; also recorded: undetected | ≥ 20000 | 15 to 20 | 6.0 ± 0.5 | 29.2 ± 0.4 | 41.0 ± 1 | CCCCCCCCOC(=O)[C@H]1O[C@H](OC)[C@H](O)[C@@H](O)[C@@H]1O [3d, Octyl (methyl α-D-glucopyranosid)uronate] | – | –

The next lines start with the compound.

Row | Compound | Tk (Krafft Temperature) [3] | solubility at 30 min [1, 5] [µM] | [C]max ([1]; water, 25 °C (Table 2)) [mM] | CMC ([2]; 25 °C) [mM] | γcmc (surface tension at the CMC) ([2]; 25 °C) [mN·m^−1] | Amin (minimal area per molecule at air-aqueous solution interface) ([2]; 25 °C) [Å^2/molecule] | CMC [4] [mM] | also measured
5 | CCCCCCCCCCCCOC(=O)[C@H]1O[C@H](OC)[C@H](O)[C@@H](O)[C@@H]1O [3f, Dodecyl (methyl α-D-glucopyranosid)uronate] | 22 ± 0.2 °C | ≥ 30 | 0.03 to 0.05 | 0.056 ± 0.004 | 28.3 ± 0.3 | 45.6 ± 5 | – | –
6 | polyethylene glycol tert-octylphenyl ether [Triton X-100] | – | – | – | – | – | – | 0.23 to 0.24 | –
7 | polyoxyethylene (23) lauryl ether [Brij 35] | – | – | – | – | – | – | 0.03 to 0.09 | –
8 | polyoxyethylene sorbitan monolaurate [Tween 20] | – | – | – | – | – | – | 0.050 to 0.059 | –
9 | CCCCCCOC(=O)[C@H]1O[C@H](OC)[C@H](O)[C@@H](O)[C@@H]1O [3c, Hexyl (methyl α-D-glucopyranosid)uronate] | undetected | ≥ 50000 | 50 to 60 | 55 ± 5 | 30.8 ± 0.8 | 39.2 ± 2.9 | – | –
